Measured values from patent publication US4806680A, “3-halovinylglycine antibacterial agents” (Merck & Co., Inc., priority 1987, dated 1989).
≈ marks a conversion by molar mass, not a printed value. Structures can show the parent of a compound that is named as a salt.

How the values were obtained:
[1] = test system: cystathionine synthetase; settings: synthesis of cystathionine from serine; cited from earlier work
[2] = test system: S. aureus; test: Agar dilution assay (M.I.C.); assay type: cell-based, Staphylococcus aureus; settings: for antibacterial activity (in words): vs S. aureus; for MIC: Staphylococcus aureus, read-out: minimum inhibitory concentration (M.I.C.)
Experimental: (§1) Representative 3-halovinylglycines and amino acid conjugates were tested for antibacterial activity by an agar dilution assay [being an modification of the antagonist-free-medium assay described in: Antimicrobial Agents and Chemotherapy, May 1979, pp 677-683 and pp 684-695]. Compounds assayed include (L) and (D)-3-chlorovinylglycine (HCL salts), (L) norvalyl-(L), (D), and (DL)-3 chlorovinylglycine (CF3 COOH salts), and (L) norvalyl-(L), (D), and (DL)-3 fluorovinylglycine (CF3 COOH) salts.

[3] = test system: E. Coli alanine racemase; test: Inhibition of E. coli alanine racemase; assay type: biochemical
[4] = test system: K. pneumoniae; test: Agar dilution assay (M.I.C.); assay type: cell-based, Klebsiella pneumoniae; settings: vs K. pneumoniae
Experimental: as §1

[5] = test system: Strep. faecalis; test: Agar dilution assay (M.I.C.); assay type: cell-based, Streptococcus faecalis; settings: vs Strep. faecalis
Experimental: as §1

[6] = test system: E. coli; test: Agar dilution assay (M.I.C.); assay type: cell-based, Escherichia coli; settings: vs E. coli
Experimental: as §1

[7] = test system: E. coli DC2; test: Agar dilution assay (M.I.C.); assay type: cell-based; settings: Escherichia coli, read-out: minimum inhibitory concentration (M.I.C.)
Experimental: as §1

[8] = test system: eleven representative strains of pathogenic bacteria; test: Agar dilution assay, panel of eleven strains; assay type: cell-based; settings: for number of test species against which activity is shown: M.I.C. equal to or less than 256 indicates activity, 11 test species
Experimental: as §1
The antibacterial activity of the representative structure I compounds versus eleven representative strains of pathogenic bacteria is shown in the following Table.

[9] = test system: E. coli TEM 2^+; test: Agar dilution assay (M.I.C.); assay type: cell-based; settings: Escherichia coli, read-out: minimum inhibitory concentration (M.I.C.)
Experimental: as §1

[10] = test system: Sal. typhimurium; test: Agar dilution assay (M.I.C.); assay type: cell-based; settings: Salmonella enterica, read-out: minimum inhibitory concentration (M.I.C.)
Experimental: as §1

C=C(Cl)C(N)C(=O)O (racemic) [racemic 3-chlorovinylglycine, 2-amino-3-chloro-3-butenoic acid]
inactivation of cystathionine synthetase (in words) [1]: not being an inactivator

C=C(Cl)[C@@H](N)C(=O)O [(D)Cl vinylgly, (D)-3-Chlorovinylglycine hydrochloride]
antibacterial activity (in words) [2]: exhibits antibacterial activity
inhibition of alanine racemase (in words) [3]: potent irreversible inhibitor
antibacterial activity (in words) [4]: exhibits antibacterial activity
antibacterial activity (in words) [5]: exhibits antibacterial activity
antibacterial activity (in words) [6]: exhibits antibacterial activity

C=C(Cl)[C@@H](NC(=O)[C@@H](N)CCC)C(=O)O [(L)-NVA--(D)-Cl--vinylgly, L-norvalyl-D-3-chlorovinylglycine]
MIC [7]: 32000 µg/mL (≈ 136 mM)

C=C(Cl)[C@H](NC(=O)[C@@H](N)CCC)C(=O)O [(L)-NVA--(L)-Cl--vinylgly, (L,L)-Norvalyl 3-chlorovinylglycine trifluoroacetate]
number of test species against which activity is shown [8]: 8 of 11
MIC [9]: 8 mg/mL
MIC [10]: 64 mg/mL
MIC [7]: 1000 µg/mL

C=C(Cl)C(NC(=O)[C@@H](N)CCC)C(=O)O (mixture of isomers) [(L)-NVA--(DL)-Cl--vinylgly, L-norvalyl-D,L-3-chlorovinylglycine]
MIC [2]: ≤ 250 µg/mL
MIC [7]: 4000 µg/mL

C=C(Cl)[C@H](N)C(=O)O [(L)Cl vinylgly, L-3-chlorovinylglycine]
antibacterial activity (in words) [2]: exhibits antibacterial activity
inhibition of alanine racemase (in words) [3]: inhibits
antibacterial activity (in words) [4]: exhibits antibacterial activity
antibacterial activity (in words) [5]: exhibits antibacterial activity

C=C(F)C(NC(=O)[C@@H](N)CCC)C(=O)O (stereo partly drawn) [(L)-NVA--(DL)-F--vinylgly, (L,DL)-Norvalyl-3-fluorovinylglycine trifluoracetate]
MIC [2]: 1000 µg/mL (≈ 4.58 mM)
MIC [7]: 4000 µg/mL (≈ 18.3 mM)

C=C(F)[C@H](NC(=O)[C@@H](N)CCC)C(=O)O [(L)-NVA--(L)-F--vinylgly, (L,L)-Norvalyl-3-fluorovinylglycine trifluoroacetate]
relative activity in the antibacterial agar dilution assay ([8]; (L,L) versus (L,D) diastereomer): more active
number of test species against which activity is shown [8]: 9 of 11
MIC [9]: 16 mg/mL
MIC [7]: 2000 µg/mL
